Laboratory results published in US20230133958A1, “COMPOUNDS USEFUL IN MODULATING EGFR AND PI3K” (Mekanistic Therapeutics LLC, priority 2021, published 2023).

What was measured:
Assay type in all cases: cell-based
[1] = system: MCF7; experiment: NCI COMPARE panel (SRB growth inhibition), MCF7; details: Homo sapiens; Breast Cancer, MCF7, 48 h
Method: (§1) The human tumor cell lines of the cancer screening panel are grown in RPMI 1640 medium containing 5% fetal bovine serum and 2 mM L-glutamine. For a typical screening experiment, cells are inoculated into 96 well microtiter plates in 100 µL at plating densities ranging from 5,000 to 40,000 cells/well depending on the doubling time of individual cell lines. After cell inoculation, the microtiter plates are incubated at 37° C., 5% CO2, 95% air and 100% relative humidity for 24 h prior to addition of experimental drugs.
(§2) After 24 h, two plates of each cell line are fixed in situ with TCA, to represent a measurement of the cell population for each cell line at the time of drug addition (Tz). Experimental drugs are solubilized in dimethyl sulfoxide at 400-fold the desired final maximum test concentration and stored frozen prior to use. […]
(§3) Following drug addition, the plates are incubated for an additional 48 h at 37° C., 5 % CO2, 95% air, and 100% relative humidity. […] Bound stain is subsequently solubilized with 10 mM trizma base, and the absorbance is read on an automated plate reader at a wavelength of 515 nm. […] Using the seven absorbance measurements [time zero, (Tz), control growth, (C), and test growth in the presence of drug at the five concentration levels (Ti)], the percentage growth is calculated at each of the drug concentrations levels. Percentage growth inhibition is calculated as: […]

[2] = system: BT-549; experiment: NCI COMPARE panel (SRB growth inhibition), BT-549; details: Homo sapiens; Breast Cancer, BT-549, 48 h
Method: as §1, §2, §3

[3] = system: MDA-MB-468; experiment: NCI COMPARE panel (SRB growth inhibition), MDA-MB-468; details: Homo sapiens; Breast Cancer, MDA-MB-468, 48 h
Method: as §1, §2, §3

[4] = system: U251; experiment: NCI COMPARE panel (SRB growth inhibition), U251; details: Homo sapiens, U-251; CNS Cancer, U251, 48 h
Method: as §1, §2, §3

[5] = system: HCT-116; experiment: NCI COMPARE panel (SRB growth inhibition), HCT-116; details: Homo sapiens; Colon Cancer, HCT-116, 48 h
Method: as §1, §2, §3

[6] = system: HCT-15; experiment: NCI COMPARE panel (SRB growth inhibition), HCT-15; details: Homo sapiens; Colon Cancer, HCT-15, 48 h
Method: as §1, §2, §3

[7] = system: MOLT-4; experiment: NCI COMPARE panel (SRB growth inhibition), MOLT-4; details: Homo sapiens; Leukemia, MOLT-4, 48 h
Method: as §1, §2, §3

[8] = system: SR; experiment: NCI COMPARE panel (SRB growth inhibition), SR; details: Homo sapiens, Leukemia, 48 h
Method: as §1, §2, §3

[9] = system: MALME-3M; experiment: NCI COMPARE panel (SRB growth inhibition), MALME-3M; details: Homo sapiens, Melanoma, 48 h
Method: as §1, §2, §3

[10] = system: EKVX; experiment: NCI COMPARE panel (SRB growth inhibition), EKVX; details: Homo sapiens, Non-Small Cell Lung Cancer, 48 h
Method: as §1, §2, §3

[11] = system: NCI-H460; experiment: NCI COMPARE panel (SRB growth inhibition), NCI-H460; details: Homo sapiens; Non-Small Cell Lung Cancer, NCI-H460, 48 h
Method: as §1, §2, §3

[12] = system: OVCAR-3; experiment: NCI COMPARE panel (SRB growth inhibition), OVCAR-3; details: Homo sapiens; Ovarian Cancer, OVCAR-3, 48 h
Method: as §1, §2, §3

[13] = system: OVCAR-5; experiment: NCI COMPARE panel (SRB growth inhibition), OVCAR-5; details: Homo sapiens; Ovarian Cancer, OVCAR-5, 48 h
Method: as §1, §2, §3

[14] = system: CAKI-1; experiment: NCI COMPARE panel (SRB growth inhibition), CAKI-1; details: Homo sapiens; Renal Cancer, CAKI-1, 48 h
Method: as §1, §2, §3

[15] = system: RXF 393; experiment: NCI COMPARE panel (SRB growth inhibition), RXF 393; details: Homo sapiens; Renal Cancer, RXF 393, 48 h
Method: as §1, §2, §3

`CS(=O)(=O)Nc1cc(-c2ccc3ncnc(Nc4cccc(Cl)c4F)c3c2)cnc1Cl` [Compound 6, N-[2-chloro-5-[4-(3-chloro-2-fluoro-anilino)quinazolin-6-yl]-3-pyridyl] methanesulfonamide] gave a GI50 [1] of at most 75 nM, a GI50 [2] of 75 to 125 nM and a GI50 [3] of 125 to 250 nM. For the same compound, the GI50 [4] was over 250 nM, the GI50 [5] was 125 to 250 nM and the GI50 [6] was 125 to 250 nM. The GI50 [7] was 125 to 250 nM, the GI50 [8] was over 250 nM and the GI50 [9] was at most 75 nM. The GI50 [10] was 75 to 125 nM, the GI50 [11] was over 250 nM and the GI50 [12] was 75 to 125 nM. It also gave a GI50 [13] of 125 to 250 nM, a GI50 [14] of at most 75 nM and a GI50 [15] of 75 to 125 nM.

With `CS(=O)(=O)Nc1cc(-c2ccc3ncc(C#N)c(Nc4cccc(Cl)c4F)c3c2)cnc1Cl` [Compound 10, N-[2-chloro-5-[4-(3-chloro-2-fluoro-anilino)-3-cyano-6-quinolyl]-3-pyridyl]methanesulfonamide] the GI50 [1] was at most 75 nM, the GI50 [2] was at most 75 nM and the GI50 [3] was at most 75 nM. For the same compound, the GI50 [4] was at most 75 nM, the GI50 [5] was at most 75 nM and the GI50 [6] was 75 to 125 nM. For the same compound, the GI50 [7] was 75 to 125 nM, the GI50 [8] was at most 75 nM and the GI50 [9] was 75 to 125 nM. For the same compound, the GI50 [10] was over 250 nM, the GI50 [11] was over 250 nM and the GI50 [12] was over 250 nM. It also gave a GI50 [13] of over 250 nM, a GI50 [14] of at most 75 nM and a GI50 [15] of at most 75 nM.
